The target in data set [1] is T1, CAL PDZ domain (CALP5-His) (Homo sapiens, UniProt Q9HD26).
T1 construct: His
The experiment in a line: FP/FA-based competition assay, Condition A (probe peptide 26). The class given is binding. As to conditions: Condition A (superscript a): 50 nM probe peptide 26, 100 nM CALP5-His, 2 mM TCEP. The source says: First, the C-terminal valine (position 0) was replaced with a variety of residues and evaluated for binding to CAL PDZ domain in silico.

The test system of data set [2] is HeLa cells. The experiment in a line: Cellular uptake efficiency by flow cytometry. As to conditions: HeLa cells. The class given is cell-based. The protocol: (§1) Cellular Uptake Efficiency: HeLa cells were seeded into 12-well cell-culture treated plates at a final density of 15×10^4 cells/well in DMEM supplemented with 10% FBS and 1% penicillin/streptomycin and incubated overnight at 37° ° C. and 5% CO2. After 24 h, the media was aspirated followed by washing the cells three times with warm DPBS. Peptides were diluted to a final concentration of 5 μM in DMEM containing 10% FBS with 1% penicillin/streptomycin, added to each well and then incubated for 2 h at 37° C. and 5% CO2. After 2 h, treatment media was aspirated and the cells were washed three times with ice-cold DPBS. Cells were removed from the plate via treatment with trypsin/EDTA and then harvested in ice-cold DPBS followed by centrifugation at ×300 RCF, 4° C. for 5 min. Cells were resuspended in DPBS and quantified using a BD Biosciences LSR II flow cytometer and gated using FlowJo. Values for uptake are provided as a percentage relative to positive control, CPP9 ([cyclo-fΦRrRrQ]-miniPEG-K[NF]).
as §1, with “Cellular Uptake. HeLa cells” for “Cellular Uptake Efficiency: HeLa cells”, “at 37° C. and” for “at 37° ° C. and”, “37° C. with 5% CO2.” for “37° C. and 5% CO2.”, “centrifugation at 300 g, 4° C.” for “centrifugation at ×300 RCF, 4° C.”, “control, CPP9 ([cyclo-fΦRrRrQ]-miniPEG-K[NF]), which has a 62% cytosolic entry efficiency. PGD97 entered HeLa cells at 60% efficiency relative to CPP9, corresponding to an absolute cytosolic entry efficiency of ˜36% (FIG. 9).” for “control, CPP9 ([cyclo-fΦRrRrQ]-miniPEG-K[NF]).”
On the technique in general: A flow cytometer gives signals particle by particle.

Data set [3] relates to HCT116 cell spheroids. The experiment in a line: Intracellular stability by MALDI imaging. As to conditions: after 4 or 24 h incubation with PGD97. Type of data set: in vitro ADME. The protocol: Intracellular Stability. PGD97 ([…]) was added to HCT116 cell spheroids in RPMI-1640 medium supplemented with 10% FBS and 1% penicillin/streptomycin and incubated for 4 or 24 h. After incubation, spheroids were washed 3× with DPBS, quickly frozen, embedded in a solid support, and cryo-sectioned. Prior to analysis, sinapinic acid was sublimed onto individual slides. The sample was imaged using a Bruker ultrafleXtreme MALDI-TOF-TOF and analyzed for the presence of proteolytic degradation fragments. Heatmaps, scaled relative to the most intense signal, were generated for the intact peptide (both 29 and 32) as well as ˜20 potential proteolytic fragments at each time point. […] A degradation fragment (#1) corresponding to proteolytic cleavage between Thr and Arg (FIG. 8B) was observed, but none of the other potential degradation products were observed. […] Most importantly, significant concentrations of intact peptide 29 was still present inside the cells after 24 h.

In data set [4] the test system is CFBE cells. The experiment in a line: Cytotoxicity, MTT assay. Type of data set: cell-based. As to conditions: 72 h, up to 50 μM. As for the experimental part:
(§2) Cytotoxicity. CFBE, HCT116 (colorectal cancer), or H358 (lung cancer) cells were seeded into a 96-well microplate (5000 cells per well) in full growth media and incubated at 37° C. overnight. A serial dilution of PGD97 was prepared in DPBS and then added to each well. The treated cells were incubated at 37° C. with 5% CO2 for 72 h. Following compound treatment, 10 μL of MTT stock solution was added to each well. After an additional 4 h at 37° C., 100 μL of SDS-HCl solubilizing solution was added to each well and the plate was returned to the incubator overnight at 37° C. A Tecan Infinite M1000 Pro microplate reader was used the following morning to measure the absorbance of the formazan product at 565 nm.

Data set [5] deals with H358 (lung cancer) cells. The experiment in a line: Cytotoxicity, MTT assay. Type of data set: cell-based. As to conditions: 72 h, up to 50 μM. The protocol:
as §2
On the technique in general: Tetrazolium dyes change colour on reduction, which living cells bring about.

Data set [6] deals with HCT116 (colorectal cancer) cells. The experiment in a line: Cytotoxicity, MTT assay. The class given is cell-based. As to conditions: 72 h, up to 50 μM. As for the experimental part:
as §2

Data set [7] relates to ΔF508CFTR-FAP. The experiment in a line: ΔF508 CFTR membrane expression, FAP assay in HEK-293T cells. The class given is cell-based. As for the experimental part:
Effect on ΔF508 CFTR Membrane Expression. HEK-293T cells stably expressing ΔF508CFTR-FAP (Holleran et al. Mol. Med. 2012, 18, 685-696) were seeded into poly-L-lysine-coated white-wall, clear bottom 96-well plates (100,000 cells/well) in complete growth medium and incubated for 24 h at 27° ° C. or 37° C. and 5% CO2. After 24 h, media was aspirated from each well and washed twice with warm DPBS. Compound serial dilutions with or without 10 μM VX809 were added to each well in fresh penicillin/streptomycin-free media containing 10% FBS and incubated at 27° ° C. or 37° ° C. in 5% CO2 for 24 h. After 24 h, the media was aspirated and each well was washed 3× with warm DPBS. 500 nM MG-B-Tau and 500 nM Hoechst 33342 was added in DPBS and MG-B-Tau fluorescence was immediately measured on a TECAN Infinite M1000 plate reader (excitation=640 nm, emission=680 nm, 10 nm bandwidth, 16 distinct points per well). After measurement, the plate was returned to the incubator at 37° C. for 1 h before quantifying Hoechst 33342 fluorescence on a TECAN Infinite M1000 plate reader (excitation=362 nm, emission=492 nm, 5 nm bandwidth, identical points per well as measured for MG-B-Tau). Cell-count normalized fluorescent intensity was determined by dividing the per-well MG-B-Tau intensity by Hoechst intensity and then plotted relative to untreated control using GraphPad PRISM ver. 7.0.

Data set [8] relates to CFBE cells. The experiment in a line: Short-circuit current, Ussing chamber. Type of data set: cell-based. As to conditions: 100 nM with 10 μM VX661, relative to VX661 only control. As for the experimental part:
(§3) Effect on Ion Channel Activity. CFBE or patient-derived primary cells were seeded onto filter inserts and grown to confluence at 37° C. in complete growth medium containing 10% FBS and 1% penicillin/streptomycin. Once confluent, cells were gently washed with DPBS and 10 µM VX661 and/or 100 nM PGD97 were added in complete growth medium supplemented with 10% FBS and 1% penicillin/streptomycin for 4 h or 24 h at 37° ° C. before measuring short circuit current using an Ussing chamber. PGD97 improved the ion channel activity by 33% and 37% relative to VX661 only controls after 4 and 24 h, respectively (FIGS. 12A and 12B).

Data set [9] has as its system patient-derived primary cells. The experiment in a line: Short-circuit current, Ussing chamber. Type of data set: cell-based, human. As to conditions: 100 nM with 10 μM VX661, 24 h. The protocol:
as §3

Data set [10] deals with LC3-II. The experiment in a line: Autophagy in macrophages, western blotting for LC3-II. Type of data set: cell-based, human. As to conditions: 100 nM, 48 h, ΔF508 CFTR macrophages. The protocol:
Effect on Autophagy in Macrophage. Human primary ΔF508 CFTR macrophages were incubated with 10 μM VX809 (n=1) or 100 nM PGD97 (n=2) for 48 h in complete growth medium supplemented with 10% FBS and 1% penicillin/streptomycin at 37° C. Induction of autophagy was determined via western blotting for autophagy-associated protein LC3-II.
(In general: In western blotting, separated proteins are transferred to a membrane and probed.)

The record followed here is patent US12496350B2 (Ohio State Innovation Foundation, priority 2018, dated 2025).

What is called IC50 is the concentration that inhibits the measured activity by half. Lower therefore signals greater potency.

Where a SMILES comes first, the peptide text is derived from it. Bridges are numbered along the chain shown (N, C = ends). [ ]: non-standard residue; d: D form. 2Nal = N[C@@H](Cc1ccc2ccccc2c1)C(=O)O; Bta = N[C@@H](Cc1csc2ccccc12)C(=O)O; Pen = CC(C)(S)[C@H](N)C(=O)O; Tle = CC(C)(C)[C@H](N)C(=O)O; Pip = O=C(O)[C@@H]1CCCCN1

With `CC(=O)N[C@@H](CS)C(=O)N[C@@H](CCCNC(=N)N)C(=O)N[C@H](CCCNC(=N)N)C(=O)N[C@@H](CCCNC(=N)N)C(=O)N[C@@H](Cc1ccc2ccccc2c1)C(=O)N[C@@H](Cc1c[nH]c2ccccc12)C(=O)N[C@@H](CCC(N)=O)C(=O)N[C@H](C(=O)N[C@H](C(=O)N[C@@H](CCCNC(=N)N)C(=O)N[C@H](C(=O)O)C(C)(C)C)[C@@H](C)O)C(C)(C)S` [Compound 22, Ac-Cys-Arg-(D-Arg)-Arg-(2-Nal)-Trp-Gln-Pen-Thr-Arg-Tle-OH] (Ac-CR[dR]R[2Nal]WQ[Pen]TR[Tle]-OH), in data set [1], the IC50 was 0.401 µM. Besides, the “Uptake (% rel.)” value in data set [2] (5 μM, 2 h, relative to CPP9 (100%)) is given as 17 ± 2%.

Regarding `CC(=O)N[C@H]1CSSC(C)(C)[C@@H](C(=O)N[C@H](C(=O)N[C@@H](CCCNC(=N)N)C(=O)N[C@H](C(=O)O)C(C)(C)C)[C@@H](C)O)NC(=O)[C@@H]2CCCCN2C(=O)[C@H](Cc2csc3ccccc23)NC(=O)[C@H](Cc2ccc3ccccc3c2)NC(=O)[C@H](CCCNC(=N)N)NC(=O)[C@H](CCCNC(=N)N)NC(=O)[C@@H](CCCNC(=N)N)NC1=O` [Compound 32, Ac-Cys*-(D-Arg)-Arg-Arg-Nal-Bta-Pip-Pen*-Thr-Arg-Tle-OH] (Ac-C[dR]RR[2Nal][Bta][Pip][Pen]TR[Tle]-OH; disulfide 1-8), the “cytosolic entry efficiency relative to CPP9” value in [2] (5 μM, 2 h) amounted to 60%. Besides, the “absolute cytosolic entry efficiency” value in data set [2] (from relative efficiency and CPP9 value) was approximately 36%. Also, the “presence of intact peptide in spheroids” value in data set [3] is recorded as “not”. Further, the cell viability result in [4], in data set [5] and in data set [6] was “did not significantly reduce the viability” each time. Moreover, the “concentrations at which increased expression was observed” value in data set [7] lay within 10 to 1000 nM. For the same molecule, the “cell surface expression of ΔF508CFTR-FAP” value is on record as “reduced its surface expression” in data set [7] (10 μM PGD97); “slightly increased” in [7] (PGD97 alone, 27° C., 24 h); “further increase in cell surface expression” in [7] (in combination with 10 μM VX809, 27° C.). For the same molecule, the “improvement of ion channel activity (short-circuit current)” value was 33% in data set [8] (after 4 h) and 37% in [8] (after 24 h). Further, the “ion channel activity (short-circuit current)” value in data set [9] is “significantly increased the ion channel activity”. In addition, the LC3-II protein levels result in data set [10] is “increased the LC3-II protein levels to nearly WT level”.
